According to patent US8710089B2, “Triazole derivatives as ghrelin analogue ligands of growth hormone secretagogue receptors” (Zentaris GmbH, priority 2005, dated 2014):

Experiments:
[1] = system: GH concentration in the plasma of male rat pups; experiment: In vivo GH concentration in the plasma of male rat pups; set-up: species or system rat (Sprague-Dawley); settings: rat pup plasma, killed 15 min later
Protocol: IV) Assaying In Vivo GH Concentration in the Plasma of Male Rat Pups
GH plasma concentrations of male rat pubs were assayed to characterize the modulation effect (antagonistic or agonistic) of the compounds of the invention being GHS receptor analogue ligands.
In principle, assaying in vivo GH concentration in rat plasma was performed according to Torsello et al. (Eur. J. Pharmacol. 1998, 360: 123-129).
Male Sprague-Dawley rat pups (Charles River, Calco, Italy) were separated on postnatal day seven from their mothers and randomly redistributed to the dams, so that each one nurtured ten to twelve pups. On postnatal day ten, the pups were again separated from their mothers.
The compounds to be tested were dissolved in solvent [DMSO (0.4% of total volume), distilled water (4% of total volume), brought to the final volume with physiological saline].
One hour after separation from their mothers, the pups were given isovolumetric amounts of the compounds to be tested (160 μg/kg body weight s.c.) at time −10 min and then administered with hexarelin (80 μg/kg body weight s.c.) or solvent at time 0 min before being killed 15 min later by decapitation. Trunk blood was collected, immediately centrifuged and plasma samples were stored at −20° C. until assayed for the determination of GH concentrations.
Plasma GH concentrations were measured using a rat growth hormone enzyme immunoassay kit (SPIbio, France, cat. no. 589601) according to the manufacturer's instructions. Values are expressed in terms of NIDDK rat-GH-RP2 standard (potency 2 IU/mg) as ng/mL of plasma
The limit of detection calculated as the concentration producing 15% displacement of initial tracer was 0.5 ng/ml; intra-assay and inter-assay coefficient of variation are 4% (n=24) and 14% (n=9).
In the following table 3 results obtained for selected compounds of the invention are presented.

[2] = system: young-adult male Sprague-Dawley rats; experiment: Feeding behavior (food intake) of young-adult male rats; type: in vivo, rat (Sprague-Dawley)
Protocol: V) Assaying the Feeding Behavior (Food Intake) of Young-Adult Male Rats
The impact of compounds of the invention being GHS receptor analogue ligands on the feeding behaviour, i.e. food intake, of young-adult male rats was assayed.
In principle, assaying the feeding behavior (food intake) of young-adult male rats was performed according to Torsello et al. (Eur. J. Pharmacol. 1998, 360: 123-129).
For the assay, young-adult male Sprague-Dawley rats (Charles River, Calco, Italy), weighing 200-250 g, were used.
Rats had 1 week of acclimation in individual home cages, and animal room conditions (22±2° C., 65% humidity, artificial light from 08.00 to 20.00 h). The following week, they were daily trained to mimic the experimental procedure. Rats maintained free access to dry pellets and tap water throughout the whole experimental period. At the end of training, rats were administered (around 10.00-11.00 a.m.) subcutaneously with the compounds to be tested (160 μg/kg body weight) and/or hexarelin (80 μg/kg body weight) and/or solvent [DMSO (0.4% of total volume), distilled water (4% of total volume), brought to the final volume with physiological saline].
Hexarelin was used to study the effects of the compounds to be tested on stimulated feeding behavior. Immediately after the injections, the animals were returned to their home cages, which contained a known amount of standard rat chow and ad libitum water. Every hour for the following 6 hours, the remaining food was carefully collected and weighed to the nearest 0.1 g. Food intake was normalized for the body weight of the rats and expressed as grams of food eaten per 100 g body weight of rats.
In the following table 4 results obtained for selected compounds of the invention are presented.

human GHS-R 1a = biological target: T1, human GHS-R 1a (Homo sapiens, UniProt Q92847); experiment: GHS-R 1a receptor-ligand binding assay (membrane preparations from transfected LLC PK-1 cells); settings: displacement of 125I-His9-ghrelin (60 pM); membranes of LLC PK-1 cells transfected with human GHS-R 1a; mean of at least two independent experiments in triplicates
T1 construct: expressed in transfected cells; host or cells: LLC PK-1 porcine renal epithelial cells (ECACC No. 86121112), isolated plasma membranes
T1 sequence (Q92847 whole entry): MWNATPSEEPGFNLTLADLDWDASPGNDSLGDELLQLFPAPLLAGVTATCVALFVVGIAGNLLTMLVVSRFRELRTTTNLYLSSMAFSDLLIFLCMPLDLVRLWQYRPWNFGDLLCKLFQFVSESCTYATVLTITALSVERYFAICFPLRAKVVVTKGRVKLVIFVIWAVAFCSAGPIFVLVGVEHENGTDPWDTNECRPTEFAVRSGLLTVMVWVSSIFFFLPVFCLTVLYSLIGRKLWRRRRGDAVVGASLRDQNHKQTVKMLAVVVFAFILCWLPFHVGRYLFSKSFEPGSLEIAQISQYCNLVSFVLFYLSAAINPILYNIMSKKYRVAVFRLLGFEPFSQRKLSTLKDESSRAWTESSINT
In short: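 Membranes from LLC PK-1 cells expressing human GHS-R 1a incubated 60 min at 25 °C in 50 mM Tris pH 7.3, 5 mM MgCl2, 2.5 mM EDTA, bacitracin with 60 pM 125I-ghrelin and competitor; nonspecific binding with 10^-6 M ghrelin; filtration read-out.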

[3] = biological target: T2, Motilin-Receptor 1a (MTL-R1a) (Homo sapiens, UniProt O43193); experiment: Motilin receptor-ligand binding assay (human recombinant HEK-293 cells); settings: 0.1 nM [125I] Motilin, read-out: MTL-R 1a IC50
T2 construct: expressed in transfected cells; host or cells: HEK-293 cells
T2 sequence (O43193 whole entry): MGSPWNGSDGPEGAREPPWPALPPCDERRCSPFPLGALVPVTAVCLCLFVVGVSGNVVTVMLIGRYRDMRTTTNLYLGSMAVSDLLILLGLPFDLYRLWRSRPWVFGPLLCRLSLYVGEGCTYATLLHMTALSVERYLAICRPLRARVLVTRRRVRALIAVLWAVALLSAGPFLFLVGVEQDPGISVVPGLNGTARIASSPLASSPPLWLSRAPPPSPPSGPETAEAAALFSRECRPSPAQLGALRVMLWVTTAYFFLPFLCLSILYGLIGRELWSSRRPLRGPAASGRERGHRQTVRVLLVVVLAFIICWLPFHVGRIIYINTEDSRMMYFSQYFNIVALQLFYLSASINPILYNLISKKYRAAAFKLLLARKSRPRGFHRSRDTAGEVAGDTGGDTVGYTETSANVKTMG
Protocol: VI) Motilin Receptor-Ligand Binding Assay (Using Human Recombinant HEK-293 Cells)
Motilin Receptor binding/affinity studies were performed as described by Feighner S D et al. (Science 1999, 284: 2184-2188). The assays were run under the following conditions:
Compounds of the invention were tested in concentrations comprising 0.01 μM, 0.1 μM, 1 μM and 10 μM.
IC50 values were determined by a non-linear, least square regression analysis using Data Analysis Toolbox (MDL Information Systems, USA).
In the following table 5 results obtained for selected compounds of the invention are presented.

[4] = system: rats with adjuvant induced arthritis; experiment: Anti-cachectic effects in an adjuvant-induced arthritis model system; type: in vivo, rat; settings: arthritic rats, 0.1 μg/kg/day s.c.
Text: VII) Study of Anti-Cachectic Effects in an Adjuvant-Induced Arthritis Model System
The effectiveness of compounds of the invention in the treatment of cachexia was investigated according to Ibanez de Caceres I et al. (J Endocrinol. 2000, 165(3): 537-544) using a cachexia model system (Roubenoff R et al., Arthritis Rheum. 1997, 40(3): 534-539).

[5] = compound 160 μg/kg s.c. at -10 min + hexarelin 80 μg/kg s.c. at 0 min
[6] = compound 160 μg/kg s.c. + hexarelin 80 μg/kg s.c.
[7] = compound alone, 160 μg/kg body weight s.c.
[8] = compound alone 160 μg/kg body weight s.c. at -10 min, solvent at 0 min

Row | Compound | GH concentration [1, 5] | Cumulative food intake (after 2 hours) [2, 6] | Cumulative food intake (after 6 hours) [2, 6] | Cumulative food intake (after 2 hours) [2, 7] | Cumulative food intake (after 6 hours) [2, 7] | IC50 (human GHS-R 1a) | GH concentration [1, 8] | IC50 [3] | Body weight change, Day 3 ([4]; Day 3, mean of 6 animals) | Body weight change, Day 6 ([4]; Day 6, mean of 6 animals) | Body weight change, Day 10 ([4]; Day 10, mean of 6 animals) | Body weight change, Day 13 ([4]; Day 13, mean of 6 animals) | Body weight change, Day 15 ([4]; Day 15, mean of 6 animals) | Body weight change, Day 17 ([4]; Day 17, mean of 6 animals)
1 | COc1ccc(Cn2c(CCc3c[nH]c4ccccc34)nnc2[C@@H](Cc2c[nH]c3ccccc23)NC(=O)C(C)(C)N)c(OC)c1 [compound 1, (R)—N-(1-(5-(2-(1H-indol-3-yl)ethyl)-4-(2,4-dimethoxybenzyl)-4H-1,2,4-triazol-3-yl)-2-(1H-indol-3-yl)ethyl)-2-amino-2-methylpropanamide] | 80.22 ± 18.66 ng/mL | 0.06 ± 0.02 g food/100 g body weight | 0.33 ± 0.21 g food/100 g body weight | 0.02 ± 0.002 g food/100 g body weight | 0.06 ± 0.03 g food/100 g body weight | 160 nM | – | – | – | – | – | – | – | –
2 | COc1ccc(Cn2c(CCc3ccccc3)nnc2[C@@H](Cc2c[nH]c3ccccc23)NC(=O)C(C)(C)N)cc1 [compound 20, (R)—N-(1-(4-(4-methoxybenzyl)-5-phenethyl-4H-1,2,4-triazol-3-yl)-2-(1H-indol-3-yl)ethyl)-2-amino-2-methylpropanamide] | 220.51 ± 15.52 ng/mL | 0.53 ± 0.21 g food/100 g body weight | 0.63 ± 0.19 g food/100 g body weight | 0.01 g food/100 g body weight | 0.2 ± 0.19 g food/100 g body weight | 14 nM | 5.27 ± 0.59 ng/mL | – | – | – | – | – | – | –
3 | COc1ccc(Cn2c(CCc3ccccc3)nnc2[C@@H](Cc2c[nH]c3ccccc23)NC(=O)c2ccccn2)c(OC)c1 [compound 64, (R)—N-(1-(4-(2,4-dimethoxybenzyl)-5-phenethyl-4H-1,2,4-triazol-3-yl)-2-(1H-indol-3-yl)ethyl)picolinamide] | 138.394 ± 14.580 ng/mL | 0.012 ± 0.004 g food/100 g body weight | 0.021 ± 0.007 g food/100 g body weight | 0.012 ± 0.008 g food/100 g body weight | 0.039 ± 0.011 g food/100 g body weight | 1.1 nM | 13.056 ± 2.169 ng/mL | 1390 nM | – | – | – | – | – | –
4 | COc1ccc(Cn2c(CCc3ccccc3)nnc2[C@@H](Cc2c[nH]c3ccccc23)NC(=O)C2CCNCC2)cc1 [compound 44, (R)—N-(1-(4-(4-methoxybenzyl)-5-phenethyl-4H-1,2,4-triazol-3-yl)-2-(1H-indol-3-yl)ethyl)piperidine-4-carboxamide] | 100.52 ± 12.112 ng/mL | 1.2667 ± 0.1319 g food/100 g body weight | 1.4033 ± 0.1177 g food/100 g body weight | 0.43 ± 0.0721 g food/100 g body weight | 0.7075 ± 0.1471 g food/100 g body weight | 0.6 nM | 87.520 ± 15.066 ng/mL | 1610 nM | −5.32 gram | 2.98 gram | 14.92 gram | 19.08 gram | 7.05 gram | 1.47 gram
5 | COc1ccc(Cn2c(CCc3c[nH]c4ccccc34)nnc2[C@@H](Cc2c[nH]c3ccccc23)NC(=O)C2CNCCN2)cc1 (stereo partly drawn) [compound 81] | 216.575 ± 19.734 ng/mL | 0.024 ± 0.0101 g food/100 g body weight | 0.116 ± 0.077 g food/100 g body weight | 0.017 ± 0.004 g food/100 g body weight | 0.03 ± 0 g food/100 g body weight | 18 nM | 18.634 ± 2.933 ng/mL | – | – | – | – | – | – | –
